# Experimental data: US20220081676A1, “MICROFLUIDIC DEVICES FOR TATTOO PIGMENT SAFETY” (priority 2019, published 2022)
# Read-outs that look alike come from different tables or passages of the source.
# Key:
# [1] = system: Human Liver-Chip; experiment: Effect of Bosentan on albumin secretion, Human Liver-Chip; assay type: cell-based; settings: in vivo relevant doses
# Source text: (§1) Readouts include but are not limited to: albumin secretion, Effect of Bosentan on Albumin Secretion; Inhibition of BSEP Transporter; Bile acid accumulation Cholyl-lysyl-fluorescein (CLF); BSEP substrate etc.
# [2] = system: Dog Liver-Chip; experiment: Effect of Bosentan on albumin secretion, Dog Liver-Chip; assay type: cell-based; settings: in vivo relevant doses
# Source text: as §1
# [3] = system: Liver-Chip; experiment: Assessment of tattoo pigment toxicity on the Liver-Chip; settings: 5 microM
# Protocol: Injury to liver function is indicated by […] in albumin Secretion. […] Other functional changes or mechanistic routes may be detectable through additional assays
# Pigment with a low concentration of 0.03% of pigment diluent is flowed through the chip (same concentrations both top and bottom channels simultaneously). […] In future applications, we also plan to explore potential toxicity of pigment diluent formulations (without pigments).
# Both top and bottom channels were treated
# Embodiments of Liver-Chips include: Co-culture (Hepatocytes+LSECs); Tri-culture (Hepatocytes+LSECs+Kupffer cells); Quad-culture (Hepatocytes+LSECs+Kupffer cells+Stellate cells); Human Liver-Chip; Rat Liver-Chip; Dog Liver-Chip; etc.
# [4] = system: epidermal cells in a Skin-Chip (microfluidic OT-chip)
# Source text: In some embodiments, a live-dead staining is used for determining cell viability.
# [5] = system: Static Skin model; assay type: cell-based, human
# Protocol: Tissue robustness evaluated by determining the ET50 value following topical exposure to 1% TritonX-100.
# (§2) In one embodiment, tissue robustness was evelauated determining the ET50 value following topical exposure to a test irritant, 1% TritonX-100. Irritation potential is calculated in terms of the “ET50” value: the time taken, in minutes, for a test compound to reduce the viability of the skin model to 50% compared with negative controls. […] Thus, at least one commercially obtained and tested skin equivalent model became permeable faster than one embodiment of a static skin model described herein.
# (§3) Immunostaining (IF):Biomarkers characteristic of the stratified epidermal layers should include: • Basement membrane markers: collagen IV, Laminin 5 • Stratum basal: Keratin 14 • Stratum spinosum: Keratin 10 • Stratum granulosum: Filaggrin • Stratum corneum: Involucrin, Loricrin Quality control of tissue reproducibility from sample to sample and lot to lot can also be established by comparison of ET50 values to a baseline value. Example provided from MatTek for their baseline ET50 value on EpiDerm200—average 6.82 h. Exposure to 1.0% Triton X-100 topically over 12 h.
# [6] = system: EpiDerm200 from MatTek; experiment: ET50 following topical exposure to Triton X-100, EpiDerm200 from MatTek; assay type: cell-based; settings: skin equivalent model on the market
# Protocol: as §2, §3
# [7] = system: Static Skin model (Hybrid Transwells); experiment: Skin irritation: release of associated cytokines after topical Triton X-100, Hybrid Transwells; assay type: cell-based, human; settings: topical exposure
# Protocol: D11 ALI. N=3 per condition Hybrid Transwells.
# Method 1: ET50 values determined by MTT or Presto Blue assay will define the class of irritancy based on in vivo classification (see table below). Topical exposures will include 3 exposure times of 2 h, 5 h and 18 h to 100 ul or 100 mg of a test material. Positive control include 5% SDS and 1% Triton X-100. Method 2: a material is considered an irritant is viability is <50% after 1 h topical exposure to 30 ul or 25 mg/of test material (OECD TG 439) Method 3: a material is considered an irritant if there is an increase in the following cytokines compared to control by ELISA is indicative of skin irritant—IL-1alpha, IL-8, prostaglandin PGE2. MatTek Irritancy protocol
# [8] = system: EpiDerm200 from MatTek; settings: cited from earlier work
# [9] = system: proximal tubular epithelium; experiment: Gentamicin-induced toxicity on Renal-Kidney Proximal Tubule-Chip; assay type: cell-based, human; settings: 10 mM for 48 hours
# Protocol: Gentamicin treatment is used for inducing damage as a positive control compared to controls without Gentamicin.
# Readouts include but are not limited to: Gentamicin-induced toxicity after exposure to 10 mM of gentamicin for 48 hours.
# [10] = system: Skin-Chip (microfluidic OT-chip); settings: human
# Source text: Readouts include but are not limited to Invitrogen PrestoBlue™. Invitrogen PrestoBlue™ Cell Viability Reagent, e.g. Fisher Scientific, Catalog number: A1326, is an exemplary metabolic Assay Reagent. When added to cells, the PrestoBlue® reagent is modified by the reducing environment of a viable cell and turns red in color, becoming highly fluorescent. This color change can be detected using fluorescence or absorbance measurements.
# [11] = system: Static Skin-Chip Model; experiment: Toxicity of pigments tattooed on Static Skin-Chip Model, metabolic activity (Presto Blue); assay type: cell-based, human
# Source text: Tattooed on D4 at ALI, N=4 per condition Hybrid Transwells.
# Metabolic Activity (Presto Blue) of Blue15 Pigment. Tattooed on D4 at ALI. N=4 per condition Hybrid Transwells.
# Thus, readouts include assessing recovery after damage. Readouts include but are not limited to Invitrogen PrestoBlue™.
# [12] = system: Static Skin models; assay type: cell-based, human
# Source text: Red tattoo pigments known to cause some level of toxicity following sun exposure.
# D12 ALI (D8 post-tattoo) N=4 per condition. Hybrid Transwells.
# Red tattoo pigments known to cause some level of toxicity following sun exposure. […] D12 ALI (D8 post-tattoo) N=4 per condition. Hybrid Transwells.
# Safety Assessment of Red122 Pigment—Phototoxicity Assay (Viability) Red tattoo pigments known to cause some level of toxicity following sun exposure. […] Chlorpromazine (CPZ), known to be induce phototoxicity and photosensitization, was used as a positive control.
# Barrier Function: Permeability of Cascade Blue (3000 MW); Quantification of skin permeability to Cascade Blue by topical deposition of 50 μl of 10 μM Cascade Blue, followed by 1 hour static incubation. Bottom channel medium collected and Papp determined by quantification of Cascade Blue present in the sampled medium using a plate-reader. […] Permeability of Testosterone and Caffeine; Requires mass spectrometer for detection. These values can be correlated to in vivo skin. Topical Compound Test for Toxicity, Corrosivity, Irritancy, Phototoxicity viability assays performed are MTT or Presto Blue. Corrosivity: a material is considered corrosive if cell viability is <50% after 3 min exposure or <15% after 60 min exposure. […]
# [13] = system: Static Skin models (Hybrid Transwells); experiment: Phototoxicity and photosensitization to Red122: cytokines release; assay type: cell-based, human; settings: tattooed with 35% w/v; for inflammatory and sensitization cytokines (IL-1Beta and IL-18) following UVA exposure: UVA on D11 ALI (D7 post-tattoo)
# [14] = system: Kidney Proximal Tubule-Chip; experiment: Assessment of tattoo pigment toxicity on the Kidney Proximal Tubule-Chip; assay type: cell-based, human
# Protocol: Channel: Renal Proximal Tubule Epithelial Cells
# Bottom Channel: Renal Microvascular Endothelial Cells
# Morphology: BF Imaging From Effluent: LDH, ROS
# Terminal Endpoints From Lysates: Caspase, ALP
# ECM-coating. Sulfo-sanpah (Covachem, #13414), ER1 (0.5 mg/ml) in ER2 50 mM HEPES buffer; Collagen IV (BD Corning, 50 μg/mL in Dulbecco's phosphate-buffered saline (DPBS); and Matrigel (BD Corning, reduced growth factor, 100 ug/ml DPBS). Cells. Top channel. Human Proximal Tubular Epithelial Cells (Lonza, RPTEC #CC-2553); and Bottom channel. Primary Human Glomerular microvascular Endothelial cells (Cell Systems. ACBRI 128), expand to P7 (e.g. passage 7). Media. Renal Epithelial Growth Medium (REGM™ Lonza, CC-3190) for Proximal tubule cells or REGM2 (from PromoCell, Cat #C-26130); and Kidney endothelial cell medium (Cell Systems, 4ZO-500). Chip. High shear chip; under flow shear; and Tall channel closed top-chip. Experimental reagents. Collagen IV coated 6 well plate; and Corning BioCoat Collagen IV multiwall plates, Corning #354428.
# One brief exemplary timeline is described as: Day −2: Chip coating; Day −1: Seeding endothelial cells; Day 0: Seeding proximal tubule epithelial cells; Day 0-7: Maintain chips; Day 7: Start Experiment (Study), e.g. 72 hours; and Day 10: End 72 hour Experiment (Study). Exemplary readouts include but are not limited to: Phase contrast microscopic images; immunofluorescent images; barrier function (in particular for kidney-chips, etc.); and Troponin I release (in particular for heart-chips, i.e. cardiac-chips).
# Outflow from chips, (e.g. S1—closed top chip; and high shear (HS) chip) was collected for certain readouts. For reference, kidney endothelial media contains 5% FBS while the kidney epithelial media contains 0.5% FBS.
compound,measurement,setting,value
COc1ccccc1Oc1c(NS(=O)(=O)c2ccc(C(C)(C)C)cc2)nc(-c2ncccn2)nc1OCCO [Bosentan],"albumin secretion, dose response",[1],dose response effects
same,"albumin secretion, dose response",[2],dose response effects
CN[C@@H]1C[C@H]2O[C@@](C)([C@@H]1OC)n1c3ccccc3c3c4c(c5c6ccccc6n2c5c31)C(=O)NC4 [staurosporine],"ATP synthesis, effluent from the bottom channels",[3],loss of ATP synthesis
same,"albumin secreted over time, effluent from the top channel",[3],loss of secreted albumin
same,hepatocyte cell morphology,[3]; after 4 days of treatment,hepatocyte damage
CC(O)C(=O)O (centres unmarked) [lactic acid],"cell death by DRAQ7 staining, dead cells/mm^2",[4],statistically significant death of skin cells
Triton X-100,ET50,[5],11 h
same,ET50,[6],7 h
same,expression of inflammatory cytokine IL-1B,[7],increase in expression
same,IL-18 (expressed following skin sensitization),[7]; D11 ALI,no significant increase
same,expression of inflammatory cytokine IL-1alpha,[7]; D11 ALI,increase in expression
same,"baseline ET50 value, average","[8]; EpiDerm200, 1.0% Triton X-100 topically, provided from MatTek",6.82 h
same,EPI-200 Triton ET-50,[8]; Year 1995,6.65 h
same,EPI-200 Triton ET-50,[8]; Year 1996,6.74 h
same,EPI-200 Triton ET-50,[8]; Year 1997,6.78 h
same,EPI-200 Triton ET-50,[8]; Year 1998,7.24 h
same,EPI-200 Triton ET-50,[8]; Year 1999,6.75 h
same,EPI-200 Triton ET-50,[8]; Year 2000 (through September 2000),6.76 h
gentamicin,LDH in medium effluent,[9],significant increase
same,NAG in medium effluent,[9],significant increase
same,ROS in medium effluent,[9],significant increase
same,active caspase-3 in cells lysates,[9],increase
same,microscopic analysis of the proximal tubular epithelium,[9],structural damage
O=C(O)CO [glycolic acid],metabolic activity (PrestoBlue) as percentage of untreated control,[10],statistically significant reduction in activity compared to the activity of citric acid (0.6M) and lactic acid
Cc1ccc2[nH]c3cc4c(=O)c5cc(C)ccc5[nH]c4cc3c(=O)c2c1 [Red122],"viability (metabolic activity, Presto Blue)","[11]; 24 h post-tattoo, tattooed on D4 at ALI, Hybrid Transwells",decrease in viability with increasing Red122 concentration
same,skin recovery (viability),[11]; over 8 days post-tattoo,Skin recovery observed
same,viability from healthy after UVA (phototoxicity),[12],85%
same,inflammatory and sensitization cytokines (IL-1Beta and IL-18) following UVA exposure,[13],both cytotoxicity and sensitization following UVA exposure
same,inflammatory and sensitization cytokines (IL-1Beta and IL-18) following UVA exposure,[13]; listed as Red,increase in both cytokines
same,effect as a skin sensitizer (cytokine release),[13]; no UVA,no effect as a skin sensitizer
same,secretion of inflammatory cytokine,[13]; no UVA,increased secretion of inflammatory cytokine
same,caspase activity,[14]; between the different doses,No significant differences were noted in caspase activity
same,kidney toxicity via LDH release,[14]; between the different doses,No significant changes in LDH
same,ROS activity,[14]; between the different groups,No significant differences were observed in the ROS activity
same,ALP activity (kidney function),[14]; different doses,No significant differences were observed in the ALP activity
